Results taken from patent publication US20060069132A1, “Azolecarboxamide herbicides” (priority 2004, published 2006).
Read-outs that look alike come from different tables or passages of the source.

What was measured:
[1] = tested on: smallflower umbrella sedge; test: Test C flooded paddy test; format: in vivo, Cyperus difformis; conditions: Cyperus difformis, 500 g ai/ha, visual rating after 12 to 14 days, scale 0 to 100 (0 no effect, 100 complete control), read-out: Plant response rating, Sedge, Umbrella
giant foxtail = test: Test C pre-/postemergence herbicide test; format: in vivo, Setaria faberi; conditions: for pest or weed control at 250 g/ha: 250 g ai/ha; for pest or weed control at 125 g/ha: 125 g ai/ha
In short: (§1)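 Emerged plants at the 1- to 4-leaf stage (2–18 cm), or freshly planted seeds, received test chemicals in a non-phytotoxic solvent mixture with surfactant. Response was visually scored against controls after 12 to 14 days in the greenhouse, on a 0 (no effect) to 100 (complete control) scale.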

Surinam grass = test: Test C pre-/postemergence herbicide test; format: in vivo, Urochloa decumbens; conditions: for pest or weed control at 125 g/ha: 125 g ai/ha
In short: as §1

eastern black nightshade = test: Test C pre-/postemergence herbicide test; format: in vivo, Solanum ptycanthum
In short: as §1

johnsongrass = test: Test C pre-/postemergence herbicide test; format: in vivo, Sorghum halepense; conditions: for pest or weed control at 125 g/ha: 125 g ai/ha
In short: as §1

lambsquarters = test: Test C pre-/postemergence herbicide test; format: in vivo, Chenopodium album; conditions: for pest or weed control at 125 g/ha: 125 g ai/ha
In short: as §1

soybean = test: Test C pre-/postemergence herbicide test; format: in vivo, Glycine max; conditions: for plant injury at 125 g/ha: 125 g ai/ha
In short: as §1

CCOC(=O)c1cccc(NC(=O)c2cc(C(C)(C)C)nn2CC)c1 [Compound 80, ethyl 3-[[[3-(1,1-dimethylethyl)-1-ethyl-1H-pyrazol-5-yl]carbonyl]-amino]benzoate]
10: Plant response rating (0 = no effect, 100 = complete control), Foxtail, Giant (giant foxtail; 62 g ai/ha, preemergence) | Plant response rating (0 = no effect, 100 = complete control), Nightshade (eastern black nightshade; 62 g ai/ha, preemergence) | Plant response rating (0 = no effect, 100 = complete control), Johnsongrass (johnsongrass; 62 g ai/ha, preemergence)
100%: pest or weed control at 250 g/ha (lambsquarters; Chenopodium album, post-emergence, Postemergence, 250 g ai/ha, scale 0 to 100, 0 no effect, 100 complete control, read-out: Plant response rating, Lambsquarters) | pest or weed control at 125 g/ha (lambsquarters; Chenopodium album, post-emergence, postemergence, scale 0 to 100, read-out: Plant response rating, Lambsquarters) | plant injury at 250 g/ha (soybean; Glycine max, post-emergence, Postemergence, 250 g ai/ha, scale 0 to 100, 0 no effect, 100 complete control, read-out: Plant response rating, Soybean)
0: Plant response rating (0 = no effect, 100 = complete control), Surinam Grass (Surinam grass; 62 g ai/ha, preemergence) | Plant response rating (0 = no effect, 100 = complete control), Lambsquarters (lambsquarters; 62 g ai/ha, preemergence) | Plant response rating (0 = no effect, 100 = complete control), Soybean (soybean; 62 g ai/ha, preemergence)
70%: pest or weed control at 500 g/ha [1] | pest or weed control at 62 g/ha (giant foxtail; Setaria faberi, post-emergence, 312 h, postemergence, 62 g ai/ha, scale 0 to 100, read-out: Plant response rating, Foxtail, Giant)
40%: pest or weed control at 125 g/ha (giant foxtail; Setaria faberi, pre-emergence, 312 h, scale 0 (no effect) to 100 (complete control), visual, 12 to 14 days, read-out: Plant response rating, Foxtail, Giant)
90%: pest or weed control at 250 g/ha (johnsongrass; Sorghum halepense, post-emergence, Postemergence, 250 g ai/ha, scale 0 to 100, 0 no effect, 100 complete control, read-out: Plant response rating, Johnsongrass) | pest or weed control at 125 g/ha (johnsongrass; Sorghum halepense, post-emergence, postemergence, scale 0 to 100, read-out: Plant response rating, Johnsongrass) | pest or weed control at 62 g/ha (lambsquarters; Chenopodium album, post-emergence, postemergence, 62 g ai/ha, scale 0 to 100, read-out: Plant response rating, Lambsquarters) | plant injury at 125 g/ha (soybean; Glycine max, post-emergence, postemergence, scale 0 to 100, read-out: Plant response rating, Soybean) | plant injury at 62 g/ha (soybean; Glycine max, post-emergence, postemergence, 62 g ai/ha, scale 0 to 100, read-out: Plant response rating, Soybean)
10%: pest or weed control at 31 g/ha (giant foxtail; Setaria faberi, pre-emergence, 312 h, 31 g ai/ha, preemergence, scale 0 to 100, read-out: Plant response rating, Foxtail, Giant) | pest or weed control at 125 g/ha (Surinam grass; Urochloa decumbens, pre-emergence, 312 h, scale 0 (no effect) to 100 (complete control), visual, 12 to 14 days, read-out: Plant response rating, Surinam Grass) | pest or weed control at 125 g/ha (eastern black nightshade; pre-emergence, 125 g ai/ha, scale 0 (no effect) to 100 (complete control), visual, 12 to 14 days, read-out: Plant response rating, Nightshade) | pest or weed control at 125 g/ha (johnsongrass; Sorghum halepense, pre-emergence, scale 0 (no effect) to 100 (complete control), visual, 12 to 14 days, read-out: Plant response rating, Johnsongrass) | pest or weed control at 125 g/ha (lambsquarters; Chenopodium album, pre-emergence, scale 0 (no effect) to 100 (complete control), visual, 12 to 14 days, read-out: Plant response rating, Lambsquarters)
80%: pest or weed control at 250 g/ha (giant foxtail; Setaria faberi, post-emergence, 312 h, Postemergence, scale 0 to 100, 0 no effect, 100 complete control, read-out: Plant response rating, Foxtail, Giant) | pest or weed control at 125 g/ha (giant foxtail; Setaria faberi, post-emergence, 312 h, postemergence, scale 0 to 100, read-out: Plant response rating, Foxtail, Giant) | pest or weed control at 250 g/ha (Surinam grass; Urochloa decumbens, post-emergence, 312 h, Postemergence, 250 g ai/ha, scale 0 to 100, 0 no effect, 100 complete control, read-out: Plant response rating, Surinam Grass) | pest or weed control at 125 g/ha (Surinam grass; Urochloa decumbens, post-emergence, 312 h, postemergence, scale 0 to 100, read-out: Plant response rating, Surinam Grass) | pest or weed control at 62 g/ha (Surinam grass; Urochloa decumbens, post-emergence, 312 h, postemergence, 62 g ai/ha, scale 0 to 100, read-out: Plant response rating, Surinam Grass) | pest or weed control at 62 g/ha (johnsongrass; Sorghum halepense, post-emergence, postemergence, 62 g ai/ha, scale 0 to 100, read-out: Plant response rating, Johnsongrass)
50%: pest or weed control at 250 g/ha (giant foxtail; Setaria faberi, pre-emergence, 312 h, scale 0 to 100 (0 no effect, 100 complete control), visual, 12 to 14 days, read-out: Plant response rating, Foxtail, Giant)
0%: pest or weed control at 31 g/ha (Surinam grass; Urochloa decumbens, pre-emergence, 312 h, 31 g ai/ha, preemergence, scale 0 to 100, read-out: Plant response rating, Surinam Grass) | pest or weed control at 31 g/ha (eastern black nightshade; pre-emergence, 31 g ai/ha, preemergence, scale 0 to 100, read-out: Plant response rating, Nightshade) | pest or weed control at 31 g/ha (johnsongrass; Sorghum halepense, pre-emergence, 31 g ai/ha, preemergence, scale 0 to 100, read-out: Plant response rating, Johnsongrass) | pest or weed control at 31 g/ha (lambsquarters; Chenopodium album, pre-emergence, 31 g ai/ha, preemergence, scale 0 to 100, read-out: Plant response rating, Lambsquarters) | plant injury at 31 g/ha (soybean; Glycine max, pre-emergence, 31 g ai/ha, preemergence, scale 0 to 100, read-out: Plant response rating, Soybean) | plant injury at 125 g/ha (soybean; Glycine max, pre-emergence, scale 0 (no effect) to 100 (complete control), visual, 12 to 14 days, read-out: Plant response rating, Soybean)
